From patent publication US9593108B2, “Compounds and methods for antiviral treatment” (PTC Therapeutics, Inc., priority 2009, dated 2017)

Key:
[1] = system: HCV replicon RNA (GenBank Accession No. AJ242654); assay: HCV Replicon Assay (replicon RNA reduction and/or Fluc reporter signal); type: cell-based, Hepatitis C virus; details: Hepatitis C virus, 72 h, replicon-containing cells cultured with test compound for up to 3 days
Method in brief: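 Bicistronic replicon-containing cells cultured with compound for up to 3 days, with interferon as positive control. Inhibition quantified by replicon RNA reduction and/or Fluc reporter signal; IC50 values generally derived from replicon RNA reduction.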

Compound	IC50 [1] [nM]	melting point [°C]
N#Cc1c(-c2ccc(S(=O)(=O)NC(CF)CF)cc2)n(C2CCC2)c2ncccc12 [Cpd 34, 4-(3-cyano-1-cyclobutyl-1H-pyrrolo[2,3-b]pyridin-2-yl)-N-(1,3-difluoropropan-2-yl)benzenesulfonamide]	< 500	180 to 182
C[C@@H](NS(=O)(=O)c1ccc(-c2c(C#N)c3cccnc3n2C2CCC2)nc1)C(F)(F)F [Cpd 35, 6-(3-cyano-1-cyclobutyl-1H-pyrrolo[2,3-b]pyridin-2-yl)-N-[(2R)-1,1,1-trifluoropropan-2-yl]pyridine-3-sulfonamide]	< 500	184 to 186
CC(C)NS(=O)(=O)c1cnc(-c2c(C#N)c3cccnc3n2C2CCC2)nc1 [Cpd 36, 2-(3-cyano-1-cyclobutyl-1H-pyrrolo[2,3-b]pyridin-2-yl)-N-(propan-2-yl)pyrimidine-5-sulfonamide]	< 500	197 to 199
CC(C)NS(=O)(=O)c1cnc(-c2c(C#N)c3cc(F)cnc3n2C2CCC2)nc1 [Cpd 37, 2-(3-cyano-1-cyclobutyl-5-fluoro-1H-pyrrolo[2,3-b]pyridin-2-yl)-N-(propan-2-yl)pyrimidine-5-sulfonamide]	< 500	207 to 209
COc1ccc2c(C#N)c(-c3ccc(S(=O)(=O)N[C@@H](C)C(F)(F)F)cn3)n(C3CCC3)c2n1 [Cpd 40, 6-(3-cyano-1-cyclobutyl-6-methoxy-1H-pyrrolo[2,3-b]pyridin-2-yl)-N-[(2S)-1,1,1-trifluoropropan-2-yl]pyridine-3-sulfonamide]	500 to 2000	193 to 194
COc1ccc2c(C#N)c(-c3ccc(S(=O)(=O)NC(CF)CF)cn3)n(C3CCC3)c2n1 [Cpd 41, 6-(3-cyano-1-cyclobutyl-6-methoxy-1H-pyrrolo[2,3-b]pyridin-2-yl)-N-(1,3-difluoropropan-2-yl)pyridine-3-sulfonamide]	< 500	194 to 195
COc1ccc2c(C#N)c(-c3ncc(S(=O)(=O)NC(CF)CF)cn3)n(C3CCC3)c2n1 [Cpd 42, 2-(3-cyano-1-cyclobutyl-6-methoxy-1H-pyrrolo[2,3-b]pyridin-2-yl)-N-(1,3-difluoropropan-2-yl)pyrimidine-5-sulfonamide]	< 500	229 to 230
COc1ccc2c(C#N)c(-c3ccc(S(=O)(=O)NC(C)(C)C)cc3)n(C3CCC3)c2n1 [Cpd 44, N-tert-butyl-4-(3-cyano-1-cyclobutyl-6-methoxy-1H-pyrrolo[2,3-b]pyridin-2-yl)benzenesulfonamide]	< 500	155 to 157
Cc1ncc2c(C#N)c(-c3ccc(S(=O)(=O)N[C@@H](C)C4CC4)cn3)n(C3CCC3)c2n1 [Cpd 45, 6-(5-cyano-7-cyclobutyl-2-methyl-7H-pyrrolo[2,3-d]pyrimidin-6-yl)-N-[(1S)-1-cyclopropylethyl]pyridine-3-sulfonamide]	< 500	155 to 157
Cc1ncc2c(C#N)c(-c3ccc(S(=O)(=O)N[C@H](C)C(F)(F)F)cn3)n(C3CCC3)c2n1 [Cpd 46, 6-(5-cyano-7-cyclobutyl-2-methyl-7H-pyrrolo[2,3-d]pyrimidin-6-yl)-N-[(2R)-1,1,1-trifluoropropan-2-yl]pyridine-3-sulfonamide]	< 500	166 to 168
C[C@@H](NS(=O)(=O)c1ccc(-c2c(C#N)c3cc(F)cnc3n2C2CCC2)nc1)C(F)(F)F [Cpd 47, 6-(3-cyano-1-cyclobutyl-5-fluoro-1H-pyrrolo[2,3-b]pyridin-2-yl)-N-[(2R)-1,1,1-trifluoropropan-2-yl]pyridine-3-sulfonamide]	< 500	167 to 169
COc1cnc2c(c1)c(C#N)c(-c1ncc(S(=O)(=O)NC(C)C)cn1)n2C1CCC1 [Cpd 49, 2-(3-cyano-1-cyclobutyl-5-methoxy-1H-pyrrolo[2,3-b]pyridin-2-yl)-N-(propan-2-yl)pyrimidine-5-sulfonamide]	< 500	215 to 217
C[C@@H](NS(=O)(=O)c1ccc(-c2c(C#N)c3cc(Cl)cnc3n2C2CCC2)nc1)C(F)(F)F [Cpd 50, 6-(5-chloro-3-cyano-1-cyclobutyl-1H-pyrrolo[2,3-b]pyridin-2-yl)-N-[(2R)-1,1,1-trifluoropropan-2-yl]pyridine-3-sulfonamide]	< 500	202 to 203
C[C@H](NS(=O)(=O)c1ccc(-c2c(C#N)c3cc(Cl)cnc3n2C2CCC2)nc1)C(F)(F)F [Cpd 51, 6-(5-chloro-3-cyano-1-cyclobutyl-1H-pyrrolo[2,3-b]pyridin-2-yl)-N-[(2S)-1,1,1-trifluoropropan-2-yl]pyridine-3-sulfonamide]	< 500	203 to 204
CC(C)(C)NS(=O)(=O)c1ccc(-c2c(C#N)c3cc(Cl)cnc3n2C2CCC2)nc1 [Cpd 52, N-tert-butyl-6-(5-chloro-3-cyano-1-cyclobutyl-1H-pyrrolo[2,3-b]pyridin-2-yl)pyridine-3-sulfonamide]	< 500	207 to 208
Cc1ncc2c(C#N)c(-c3ccc(S(=O)(=O)NC(C)(C)C(F)(F)F)cc3)n(C3CCC3)c2n1 [Cpd 53, 4-(5-cyano-7-cyclobutyl-2-methyl-7H-pyrrolo[2,3-d]pyrimidin-6-yl)-N-(1,1,1-trifluoro-2-methylpropan-2-yl)benzenesulfonamide]	< 500	211 to 214
C[C@H](NS(=O)(=O)c1ccc(-c2c(C#N)c3ccc(OC(F)F)nc3n2C2CCC2)nc1)C(F)(F)F [Cpd 54, 6-[3-cyano-1-cyclobutyl-6-(difluoromethoxy)-1H-pyrrolo[2,3-b]pyridin-2-yl]-N-[(2S)-1,1,1-trifluoropropan-2-yl]pyridine-3-sulfonamide]	< 500	176 to 177
N#Cc1c(-c2ncc(S(=O)(=O)NC(CF)CF)cn2)n(C2CCC2)c2nc(OC(F)F)ccc12 [Cpd 55, 2-[3-cyano-1-cyclobutyl-6-(difluoromethoxy)-1H-pyrrolo[2,3-b]pyridin-2-yl]-N-(1,3-difluoropropan-2-yl)pyrimidine-5-sulfonamide]	< 500	234 to 236
CC(C)(NS(=O)(=O)c1ccc(-c2c(C#N)c3cc(Cl)cnc3n2C2CCC2)nc1)C(F)(F)F [Cpd 56, 6-(5-chloro-3-cyano-1-cyclobutyl-1H-pyrrolo[2,3-b]pyridin-2-yl)-N-(1,1,1-trifluoro-2-methylpropan-2-yl)pyridine-3-sulfonamide]	< 500	221 to 222
N#Cc1c(-c2ccc(S(=O)(=O)NC3(C(F)(F)F)CC3)cn2)n(C2CCC2)c2ncc(Cl)cc12 [Cpd 57, 6-(5-chloro-3-cyano-1-cyclobutyl-1H-pyrrolo[2,3-b]pyridin-2-yl)-N-[1-(trifluoromethyl)cyclopropyl]pyridine-3-sulfonamide]	< 500	254 to 255
CC(C)NS(=O)(=O)c1cnc(-c2c(C#N)c3cc(Cl)cnc3n2C2CCC2)nc1 [Cpd 58, 2-(5-chloro-3-cyano-1-cyclobutyl-1H-pyrrolo[2,3-b]pyridin-2-yl)-N-(propan-2-yl)pyrimidine-5-sulfonamide]	< 500	224 to 225
